Where two headings read alike, the source gives them in different places.

These results are taken from patent US20220402984A1, “LYSIN-ANTIMICROBIAL PEPTIDE (AMP) POLYPEPTIDE CONSTRUCTS, LYSINS, ISOLATED POLYNUCLEOTIDES ENCODING SAME AND USES THEREOF” (priority 2018, published 2022).

The test system of experiment [1] is P. aeruginosa (strain WC-452). The experiment in a line: 21-day serial passage resistance assay. Type of experiment: cell-based, Pseudomonas aeruginosa. To be noted: over 18 days. On the procedure: […]. An analysis of bacterial resistance was performed using P. aeruginosa (strain WC-452) over 21 days of serial passage in the presence of a GN-lysin dilution series (in duplicate). […] The well with the highest concentration of GN lysin in which bacterial growth was seen was then used as the inoculum for the next day's passage, and the process was repeated over a 21 day period. The MIC at each daily time-point was recorded, and resistance was measured as a step-wise increase in MIC.

Experiment [2] relates to carbapenem-resistant P. aeruginosa strains. The format is cell-based, Pseudomonas aeruginosa. Here is the method:
Such resensitization may be determined by combining the present lysins or lysin-AMP polypeptide constructs with an antibiotic in a checkerboard assay as described herein. Antibiotic-resistant bacteria, such as carbapenem-resistant P. aeruginosa, are added to the lysin or lysin-AMP polypeptide construct combination. […] See Clinical and Laboratory Standards Institute (CLSI), CLSI. […] M100 Performance Standards for Antimicrobial Susceptibility Testing; 29th Edition. Clinical and Laboratory Standards Institute, Wayne, Pa., which is herein incorporated by reference in its entirety.
Up to seven carbapenem-resistant isolates were assessed. […] See Clinical and Laboratory Standards Institute (CLSI), CLSI. […] M100 Performance Standards for Antimicrobial Susceptibility Testing; 29th Edition. Clinical and Laboratory Standards Institute, Wayne, Pa.

For experiment [3], the system named is P. aeruginosa isolate CFS 1558 (PA20). Nature of the experiment: Rabbit pulmonary model establishment: inoculum and meropenem static dose. To be noted: for Bacterial Burden, Kidneys / Bacterial Burden, Lung 1 / Bacterial Burden, Lung 2 / Bacterial Burden, Spleen: sacrificed 18-24 hours after last dose. The format is in vivo.
Description: 3×10^9 CFU of the P. aeruginosa isolate was used to challenge the rabbits during the efficacy study described below.
Another experiment relates to Staphylococcus aureus. Nature of the experiment: Daptomycin MIC in […] (positive control). To be noted: S. aureus. The format is cell-based.
[4] abbreviates: Meropenem 10 mg/kg, three times a day subcutaneous for two days.
The mark [5] stands for this setting: Meropenem 20 mg/kg, three times a day subcutaneous for two days.
Where [6] appears, read: Meropenem 30 mg/kg, three times a day subcutaneous for two days.
[7] abbreviates: Meropenem 40 mg/kg, three times a day subcutaneous for two days.

Protocol for Staphylococcus aureus: As a positive control, the impact of […] ® on daptomycin (DAP) activity against Staphylococcus aureus was also tested.

Take `O=C(O)c1cn(C2CC2)c2cc(N3CCNCC3)c(F)cc2c1=O` [Ciprofloxacin]: the “increase in MIC during serial passage” value in experiment [1] was 16 fold.

As for `C[C@@H](O)[C@H]1C(=O)N2C(C(=O)O)=C(SCCN=CN)C[C@H]12` [Imipenem, imipenem], the “Antibiotic MIC Alone” value in experiment [2] (IPM + GN351 vs. WC-452), in experiment [2] (IPM + GN370 vs. WC-452) and in experiment [2] (IPM + GN428 vs. WC-452) was 16 (R) throughout.

For the molecule `C[C@@H](O)[C@H]1C(=O)N2C(C(=O)O)=C(S[C@@H]3CN[C@H](C(=O)N(C)C)C3)[C@H](C)[C@H]12` [Meropenem, meropenem], the “Antibiotic MIC Alone” value in experiment [2] (MEM + GN351 vs. WC-452), in experiment [2] (MEM + GN370 vs. WC-452) and in experiment [2] (MEM + GN428 vs. WC-452) was 16 (R) throughout. Moreover, the “Bacterial Burden, Kidneys” value in experiment [3] (setting [4]) is on record as 4.36 ± 0.43 log10 CFU/g; in experiment [3] (setting [5]), 4.51 ± 0.73 log10 CFU/g; in experiment [3] (Meropenem 25 mg/kg) it was 2.06 ± 0.58 log10 CFU/g; in experiment [3] (setting [6]), 2.24 ± 0.64 log10 CFU/g; in experiment [3] (setting [7]) it was 2.34 ± 0.65 log10 CFU/g. For the same molecule, the “Bacterial Burden, Lung 1” value is reported as 7.39 ± 0.34 log10 CFU/g in experiment [3] (setting [4]); 6.85 ± 1.09 log10 CFU/g in experiment [3] (setting [5]); 4.55 ± 1.65 log10 CFU/g in experiment [3] (Meropenem 25 mg/kg); 4.83 ± 1.19 log10 CFU/g in experiment [3] (setting [6]); 4.66 ± 0.11 log10 CFU/g in experiment [3] (setting [7]). In addition, the “Bacterial Burden, Lung 2” value in experiment [3] (setting [4]) worked out at 7.42 ± 0.64 log10 CFU/g; in experiment [3] (setting [5]), 6.97 ± 1.19 log10 CFU/g; in experiment [3] (Meropenem 25 mg/kg), 3.73 ± 1.03 log10 CFU/g; in experiment [3] (setting [6]), 4.42 ± 1.14 log10 CFU/g; in experiment [3] (setting [7]) it was 2.95 ± 1.19 log10 CFU/g. Also, the “Bacterial Burden, Spleen” value in experiment [3] (setting [4]) amounted to 4.01 ± 0.10 log10 CFU/g; in experiment [3] (setting [5]), 4.74 ± 0.57 log10 CFU/g; in experiment [3] (Meropenem 25 mg/kg) it was 2.15 ± 0.78 log10 CFU/g; in experiment [3] (setting [6]) it was 1.97 ± 0.63 log10 CFU/g; in experiment [3] (setting [7]), 1.93 ± 0.47 log10 CFU/g. Besides, the “meropenem dosage establishing a static effect” value in experiment [3] (three times a day, subcutaneous, two days, rabbits) is given as 20 mg/kg.

For the molecule daptomycin, the “fold increase in MIC” value in the experiment on Staphylococcus aureus (0.09% SURVANTA) is given as 32; in the experiment with Staphylococcus aureus (0.19% SURVANTA) it was 32; in the experiment with Staphylococcus aureus (1.56% SURVANTA), 128; with Staphylococcus aureus (3.15% SURVANTA), 128.
